Laboratory results as given in patent US20080249034A1, “Use of Macrolides for Treating Intestinal Inflammation” (ZAMBON S.P.A., priority 2005, published 2008).

System: DNBS-induced colitis
Experiment: DNBS-induced colitis in rats, macroscopic damage score
Type: in vivo, rat
Conditions: Sprague-Dawley rats, intrarectal DNBS on day 2, DNBS group score 10.7±0.4
Method: Albino male Sprague-Dawley rats, 200-250 g body weight, were treated with intrarectal DNBS (2,4-dinitrobenzensufonic acid, 30 mg in 0.25 ml of 50% ethanol) under a light anaesthesia with diethyl ether. In control experiments, the animals received 0.25 ml of saline (NaCl 0.9%). Animals were subjected to subsequent experimental procedures 6 days after induction of colitis with DNBS (Blandizzi et al., Altered prejunctional modulation of intestinal cholinergic and noradrenergic pathways by alpha-2-adrenoceptors in the presence of experimental colitis. Br J Pharmacol 139, 309-320, 2003). […]
At the end of treatments, animals were sacrificed and the severity of colonic inflammation was macroscopically evaluated in accordance with the criteria previously reported by Wallace and Keenan (Wallace J L and Keenan C M, An orally active inhibitor of leukotriene synthesis accelerates healing in a rat model of colitis. Am J Physiol, 258, G527-G534, 1990) with minor modifications (Blandizzi, et al., 2003). Briefly, the macroscopic evaluation is based on the following criteria: presence of adhesions between the colon and other intra-abdominal organs; consistency of colonic faecal material (as an indirect marker of diarrhea); thickening of the colonic wall; presence and extension of hyperemia and macroscopic mucosal damage (assessed with the aid of a ruler) (FIG. 2). […]

Q: For `CC[C@H]1OC(=O)[C@H](C)[C@@H](O)[C@H](C)[C@@H](O[C@@H]2O[C@H](C)C[C@H](N(C)C(C)=O)[C@H]2O)C(C)(O)C[C@@H](C)[C@H](O)[C@H](C)[C@@H](O)[C@]1(C)O` (some centres unmarked) [macrolide], which “anti-inflammatory effect (change of macroscopic damage score)” value (100 μmol/kg/day by intragastric gavage for 7 days) is on record?
A: −24%

Q: What about the “anti-inflammatory effect (change of macroscopic damage score)” value (300 μmol/kg/day by intragastric gavage for 7 days) of the same molecule?
A: −51%
